Laboratory results as given in publication PMC11774580 (Chemosphere, 2024).
Values joined by “and” are separate entries in the source; they are usually repeats but may differ in a detail not shown here. Equal entries are not always repeated. Where two headings read alike, the source gives them in different places.

Tests used:
[1] = target: T1, human OAT3 (Homo sapiens, UniProt Q8TCC7); assay: OAT3 inhibition assay
T1 sequence (Q8TCC7 1-542): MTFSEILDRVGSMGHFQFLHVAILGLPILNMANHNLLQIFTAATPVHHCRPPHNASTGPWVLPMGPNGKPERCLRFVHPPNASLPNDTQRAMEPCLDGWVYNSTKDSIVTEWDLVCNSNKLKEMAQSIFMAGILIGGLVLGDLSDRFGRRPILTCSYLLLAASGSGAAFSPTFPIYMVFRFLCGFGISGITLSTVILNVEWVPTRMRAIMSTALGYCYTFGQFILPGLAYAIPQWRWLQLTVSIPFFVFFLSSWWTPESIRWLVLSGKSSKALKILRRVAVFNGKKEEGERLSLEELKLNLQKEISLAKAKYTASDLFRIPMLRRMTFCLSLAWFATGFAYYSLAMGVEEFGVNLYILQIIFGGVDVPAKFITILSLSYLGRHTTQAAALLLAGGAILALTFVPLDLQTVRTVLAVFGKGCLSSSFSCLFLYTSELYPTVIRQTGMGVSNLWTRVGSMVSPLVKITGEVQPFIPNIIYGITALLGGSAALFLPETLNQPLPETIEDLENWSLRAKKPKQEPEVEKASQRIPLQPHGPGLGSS

[2] = test system: MDCKII-LE cell monolayers; assay: Apparent permeability; conditions: donor pH 7.4, receiver pH 7.4; 2 μM PFAS; 90 min; 0.4% BSA in receiver
[3] = target: T2, human OAT1 (Homo sapiens, UniProt Q4U2R8); assay: OAT1 inhibition assay
T2 sequence (Q4U2R8 1-563): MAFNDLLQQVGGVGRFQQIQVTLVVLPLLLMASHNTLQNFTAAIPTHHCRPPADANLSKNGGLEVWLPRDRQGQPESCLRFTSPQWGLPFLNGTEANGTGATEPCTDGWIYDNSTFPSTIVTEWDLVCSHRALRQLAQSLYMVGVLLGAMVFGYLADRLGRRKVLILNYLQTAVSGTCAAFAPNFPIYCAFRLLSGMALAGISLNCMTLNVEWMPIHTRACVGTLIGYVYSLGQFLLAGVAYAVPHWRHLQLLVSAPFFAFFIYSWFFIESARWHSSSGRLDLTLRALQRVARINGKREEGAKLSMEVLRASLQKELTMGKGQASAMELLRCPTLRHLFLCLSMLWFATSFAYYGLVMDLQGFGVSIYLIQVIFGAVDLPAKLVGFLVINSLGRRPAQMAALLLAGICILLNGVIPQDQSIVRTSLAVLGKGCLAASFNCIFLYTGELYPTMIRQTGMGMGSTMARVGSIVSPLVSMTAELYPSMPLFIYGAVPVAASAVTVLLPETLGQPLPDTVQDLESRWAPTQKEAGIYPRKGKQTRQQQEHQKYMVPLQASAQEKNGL

[4] = target: T1, human OAT3; assay: hOAT3 substrate; conditions: for hOAT3 uptake ratio, % higher than mock transfectants / hOAT3 uptake ratio, fold higher than mock transfected controls: 1 μM PFAS screen; for Transporter Uptake Ratio OAT3: 1 μM PFAS, threshold ≥ 2-fold; for hOAT3-mediated uptake, fold: follow-up test, without probenecid; for Effect of probenecid cotreatment on hOAT3-mediated uptake: probenecid 1 mM
[5] = target: T3, human OAT4 (Homo sapiens, UniProt Q9NSA0); assay: hOAT4 substrate; assay type: in vitro ADME; conditions: for Effect of probenecid co-treatment on hOAT4-mediated uptake: probenecid 1 mM; for hOAT4 uptake ratio, fold / hOAT4 uptake ratio, % above controls: 1 μM PFAS screen; for Transporter Uptake Ratio OAT4: 1 μM PFAS, threshold ≥ 2-fold
T3 sequence (Q9NSA0 1-550): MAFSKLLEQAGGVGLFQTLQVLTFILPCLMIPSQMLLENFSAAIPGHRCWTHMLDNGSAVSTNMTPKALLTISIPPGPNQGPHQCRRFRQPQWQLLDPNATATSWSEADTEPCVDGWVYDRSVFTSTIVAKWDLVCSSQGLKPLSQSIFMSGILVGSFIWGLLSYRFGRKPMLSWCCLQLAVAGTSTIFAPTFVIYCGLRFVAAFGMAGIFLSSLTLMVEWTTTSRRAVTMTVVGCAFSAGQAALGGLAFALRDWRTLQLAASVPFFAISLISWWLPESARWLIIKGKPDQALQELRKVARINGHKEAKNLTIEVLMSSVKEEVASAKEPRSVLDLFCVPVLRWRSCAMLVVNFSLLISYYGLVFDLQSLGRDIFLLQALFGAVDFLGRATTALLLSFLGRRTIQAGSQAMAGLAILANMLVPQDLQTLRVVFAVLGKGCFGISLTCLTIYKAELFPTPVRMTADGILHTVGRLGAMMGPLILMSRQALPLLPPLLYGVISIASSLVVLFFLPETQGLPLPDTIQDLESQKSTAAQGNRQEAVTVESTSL

[6] = target: T2, human OAT1; assay: hOAT1 substrate; conditions: for Transporter Uptake Ratio OAT1: 1 μM PFAS, threshold ≥ 2-fold; for hOAT-mediated uptake (Fig. 3A, OAT1), fold: follow-up test, without probenecid
[7] = read-out: IC50 hOAT3 inhibition, probe [3H]-ES 0.1 μM, 30 min pre-incubation

| SMILES | Ph 7.4 A-B Papp [2] | Effect of probenecid co-treatment on hOAT4-mediated uptake [5] | hOAT3 uptake ratio, fold higher than mock transfected controls [4] | Transporter Uptake Ratio OAT3 [4] | hOAT3-mediated uptake, fold [4] | Effect of probenecid cotreatment on hOAT3-mediated uptake [4] | OAT4 substrate classification [5] | hOAT4 uptake ratio, fold [5] | Transporter Uptake Ratio OAT4 [5] | other results |
| --- | --- | --- | --- | --- | --- | --- | --- | --- | --- | --- |
| O=C(O)C(F)(F)C(F)(F)C(F)(F)F [PFBA, Perfluorobutanoic acid] | 0.93 ×10⁻⁶ cm/s | – | – | – | – | – | – | – | – | Some level of inhibition against hOAT3 mediated transport [1]: the only exceptions; Some level of inhibition against hOAT1 mediated transport [3]: the only exceptions; hOAT3 substrate classification [4]: weak substrate; hOAT3 uptake ratio, % higher than mock transfectants [4]: 30–50%; hOAT3 uptake ratio ([4]; statistically significant, below 2-fold cut-off): 1.5 |
| O=C(O)C(F)(F)C(F)(F)C(F)(F)C(F)(F)F [PFPA, perfluoropentanoic acid] | 0.99 ×10⁻⁶ cm/s | effectively inhibited | 2.5–12 fold | + (denoted with a “+” to denote a threshold of ≥ 2-fold has been met and considered a substrate for the transporter) | 2.5–15 fold | markedly inhibited | – | – | – | – |
| O=C(O)C(F)(F)C(F)(F)C(F)(F)C(F)(F)C(F)(F)C(F)(F)C(F)(F)C(F)(F)F [PFNA, perfluorononanoic acid] | 3.77 ×10⁻⁶ cm/s | effectively inhibited | 2.5–12 fold | + (denoted with a “+” to denote a threshold of ≥ 2-fold has been met and considered a substrate for the transporter) | 2.5–15 fold | markedly inhibited | strong substrates | greater than 2 fold | + (denoted with a “+” to denote a threshold of ≥ 2-fold has been met and considered a substrate for the transporter) | IC50 [1, 7]: 9.8 µM |
| O=S(=O)(O)C(F)(F)C(F)(F)C(F)(F)C(F)(F)C(F)(F)C(F)(F)F [PFHxS, perfluorohexane sulfonic acid] | – | not inhibited | 2.5–12 fold | + (denoted with a “+” to denote a threshold of ≥ 2-fold has been met and considered a substrate for the transporter) | 2.5–15 fold | markedly inhibited | strong substrates | greater than 2 fold | + (denoted with a “+” to denote a threshold of ≥ 2-fold has been met and considered a substrate for the transporter) | Fold difference in OAT4 uptake ratio between PFHxS and PFOS ([5]; PFHxS versus PFOS): ~ 2.5 fold; IC50 [1]: 10.3 µM |
| O=C(O)C(F)(F)C(F)(F)C(F)(F)C(F)(F)C(F)(F)C(F)(F)C(F)(F)C(F)(F)C(F)(F)C(F)(F)F [PFUDA, perfluoroundecanoic acid] | 11.56 ×10⁻⁶ cm/s | – | – | – | – | – | – | – | – | – |
| O=S(=O)(O)CCC(F)(F)C(F)(F)C(F)(F)C(F)(F)C(F)(F)C(F)(F)F [6:2FTS, 6:2 fluorotelomer sulfonate] | 0.71 ×10⁻⁶ cm/s | – | 2.5–12 fold | + (denoted with a “+” to denote a threshold of ≥ 2-fold has been met and considered a substrate for the transporter) | 2.5–15 fold | – | – | greater than 2 fold | + (denoted with a “+” to denote a threshold of ≥ 2-fold has been met and considered a substrate for the transporter) | Transporter Uptake Ratio OAT1 [6]: + (denoted with a “+” to denote a threshold of ≥ 2-fold has been met and considered a substrate for the transporter); hOAT-mediated uptake (Fig. 3A, OAT1), fold [6]: ~ 4 fold; IC50 [1, 7]: 11.3 µM |
| O=S(=O)(O)C(F)(F)C(F)(F)C(F)(F)C(F)(F)F [PFBS, Perfluorobutane sulfonic acid] | 1.38 ×10⁻⁶ cm/s | effectively inhibited | 2.5–12 fold | + (denoted with a “+” to denote a threshold of ≥ 2-fold has been met and considered a substrate for the transporter) | 2.5–15 fold | markedly inhibited | strong substrates | greater than 2 fold | + (denoted with a “+” to denote a threshold of ≥ 2-fold has been met and considered a substrate for the transporter) | hOAT1 uptake ratio, % higher than controls ([6]; 1 μM PFAS screen): 5–60% |
| O=C(O)C(F)(F)C(F)(F)C(F)(F)C(F)(F)C(F)(F)F [PFHxA, perfluorohexanoic acid] | 1.16 ×10⁻⁶ cm/s | effectively inhibited | 2.5–12 fold | + (denoted with a “+” to denote a threshold of ≥ 2-fold has been met and considered a substrate for the transporter) | 2.5–15 fold | markedly inhibited | strong substrates | – | + (denoted with a “+” to denote a threshold of ≥ 2-fold has been met and considered a substrate for the transporter) | hOAT4 uptake ratio, % above controls [5]: ~ 20%; hOAT1 uptake ratio, fold higher than the control ([6]; 1 μM PFAS screen): ~ 2 fold; Transporter Uptake Ratio OAT1 [6]: + (denoted with a “+” to denote a threshold of ≥ 2-fold has been met and considered a substrate for the transporter); hOAT-mediated uptake (Fig. 3A, OAT1), fold [6]: ~ 2 fold; Effect of probenecid co-treatment on hOAT1-mediated uptake ([6]; probenecid 1 mM): markedly reduced |
| O=C(O)C(F)(F)C(F)(F)C(F)(F)C(F)(F)C(F)(F)C(F)(F)C(F)(F)F [PFOA, perfluorooctanoic acid] | 1.46 ×10⁻⁶ cm/s | effectively inhibited | 2.5–12 fold | + (denoted with a “+” to denote a threshold of ≥ 2-fold has been met and considered a substrate for the transporter) | 2.5–15 fold | markedly inhibited | strong substrates | greater than 2 fold | + (denoted with a “+” to denote a threshold of ≥ 2-fold has been met and considered a substrate for the transporter) | hOAT1 uptake ratio, % higher than controls ([6]; 1 μM PFAS screen): 5–60%; IC50 [1]: 8.9 µM; IC50 [3]: 51.4 to 166 µM |
| O=S(=O)(O)C(F)(F)C(F)(F)C(F)(F)C(F)(F)C(F)(F)C(F)(F)C(F)(F)C(F)(F)F [PFOS, perfluorooctane sulfonic acid] | 14 ×10⁻⁶ cm/s and 14.04 ×10⁻⁶ cm/s | – | – | – | – | – | relatively weak substrate | – | – | hOAT4 uptake ratio, % above controls [5]: ~ 20%; hOAT3 uptake ratio, % higher than mock transfectants [4]: 30–50% |
| O=C(O)C(F)(F)C(F)(F)C(F)(F)C(F)(F)C(F)(F)C(F)(F)C(F)(F)C(F)(F)C(F)(F)F [PFDA, perfluorodecanoic acid] | 8.44 ×10⁻⁶ cm/s | – | – | – | – | – | – | – | – | hOAT3 substrate classification [4]: weak substrate; hOAT3 uptake ratio, % higher than mock transfectants [4]: 30–50% |
